From patent US5801260A, “Carbonothioate phospholipid analogs as substrate of phospholipases and lipases” (priority 1995, dated 1998)

Key:
[1] = target: T1, cobra venom phospholipase A2 (Naja atra, UniProt P00598); experiment: Inhibition of phospholipase A2 by a reversible inhibitor, carbonothioate assay; assay type: biochemical; settings: substrate 1-decanoyl-2-octylcarbonothioyl-sn-glycero-3-phosphocholine 0.5 mM, standard buffer with 4.24 mM Triton X-100; inhibitor 1 μM to 20 μM; FIG. 8
T1 construct: cobra venom phospholipase A2 (Naja naja atra); from tissue; host or cells: venom of Naja naja atra
T1 sequence (P00598 28-146 limits assumed): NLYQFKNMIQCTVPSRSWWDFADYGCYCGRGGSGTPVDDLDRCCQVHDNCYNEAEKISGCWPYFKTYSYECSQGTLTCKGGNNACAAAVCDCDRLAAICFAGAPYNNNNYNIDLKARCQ
Method: (§1) (b) Method: The desired amount of carbonothioate phospholipid in methylene chloride was evaporated to dryness under a stream of nitrogen. An appropriate volume of buffer A is added. This solution was sonicated in a bath sonicator to clearness. The assay was carried out at 40° C. A cuvette, containing 0.3 mL of assay mixture and 5 μL of DTNB was placed in the compartment of a spectrophotometer thermostated at 40° C. After equilibration of the substrate for 2 min at 40° C., a stable baseline was recorded for 150 sec. To initiate the reaction, cobra venom phospholipase A2 (Naja naja atra) (5 μL containing 125 ng protein in buffer B) was added to the cuvette and the reaction was recorded spectrophotometrically at 412 nm for 150 sec. The phospholipase activity is calculated using the extinction coefficient of 12,000 M^-1 cm^-1. Between each run, the cuvette is rinsed with Clorox, water and acetone.
Method: The appropriate volume of carbonothioate phospholipid in methylene chloride was dried under a stream of nitrogen. […] The enzymatic activity was determined similarly to Example 5 except that 500 ng enzyme was used.
A solution of 1-decanoyl-2-octylcarbonothioyl-sn-glycero-3-phosphocholine (1.0 mM) in buffer C was prepared as in Example 6. […] The enzymatic activity in the presence of the amide analog was determined as in Example 6.

[2] = target: T1, cobra venom phospholipase A2; experiment: Inactivation of phospholipase A2 by an irreversible inhibitor, carbonothioate assay of residual activity; assay type: biochemical; settings: enzyme preincubated with 100 μM inhibitor at 40° C.; substrate 1-decanoyl-2-octylcarbonothioyl-sn-glycero-3-phosphocholine 0.5 mM, 4.24 mM Triton X-100; FIG. 9
Method: as §1
Method: The appropriate volume of carbonothioate phospholipid in methylene chloride was dried under a stream of nitrogen. To prepare mixed micelles, the appropriate volume of buffer C was added, and the volume was brought to the final volume with buffer B. This solution was bath-sonicated to obtain a clear solution. The enzymatic activity was determined similarly to Example 5 except that 500 ng enzyme was used. […]

With `CCCCCCCCCCCCCCCCSC[C@H](COP(=O)([O-])OCC[N+](C)(C)C)NC(=O)CCCCCCCCCCCCCCC` [amide substrate analogs, 1-hexadecyl-thio-2-hexadecanoylamino-1,2-dideoxy-sn-glycero-3-phosphocholine] the “inhibition of cobra venom phospholipase A2 as determined by the carbonothioate assay” value [1] was “inhibition”.

In the case of `CCCCCCCCCC(=O)OCC(COP(=O)([O-])OCC[N+](C)(C)C)OC(=O)CC(C)(C)CC(=O)Oc1ccc([N+](=O)[O-])cc1` (centres unmarked) [irreversible inhibitor], the “inhibition of cobra venom phospholipase A2 as followed by the carbonothioate assay” value [2] is reported as “time-dependent inhibition”.
